Results: patent US8598170B2, “Dual-acting oxazole antihypertensive agents” (Theravance, Inc., priority 2009, dated 2013)

Tests used:
human AT1 receptor = target: T1, human AT1 receptor (Homo sapiens, UniProt P30556); experiment: AT1 radioligand binding assay ([Eu]AngII displacement, CHO-K1 membranes); settings: read-out: pKi at the AT1 receptor (converted)
T1 construct: expressed in transfected cells; host or cells: CHO-K1
T1 sequence (P30556 1-359): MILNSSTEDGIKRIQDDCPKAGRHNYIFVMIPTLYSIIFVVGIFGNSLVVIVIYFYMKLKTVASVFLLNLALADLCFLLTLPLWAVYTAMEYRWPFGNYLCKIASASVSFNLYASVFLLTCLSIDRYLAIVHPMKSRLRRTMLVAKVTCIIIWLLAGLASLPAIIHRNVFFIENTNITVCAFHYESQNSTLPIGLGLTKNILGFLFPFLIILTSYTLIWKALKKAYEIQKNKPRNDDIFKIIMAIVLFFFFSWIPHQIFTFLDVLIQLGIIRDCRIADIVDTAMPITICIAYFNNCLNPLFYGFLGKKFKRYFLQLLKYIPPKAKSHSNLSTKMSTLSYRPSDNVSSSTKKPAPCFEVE
Method: These in vitro assays were used to assess the ability of test compounds to bind to the AT1 and the AT2 receptors.
Chinese hamster ovary (CHO-K1) derived cell lines stably expressing the cloned human AT1 or AT2 receptors, respectively, were grown in HAM's-F 12 medium supplemented with 10% fetal bovine serum, 10 μg/ml penicillin/streptomycin, and […] in a 5% CO2 humidified incubator at 37° C. AT2 receptor expressing cells were grown in the additional presence of 100 nM PD123,319 (AT2 antagonist). When cultures reached 80-95% confluence, the cells were washed thoroughly in PBS and lifted with 5 mM EDTA. Cells were pelleted by centrifugation and snap frozen in MeOH-dry ice and stored at −80° C. until further use.
For membrane preparation, cell pellets were resuspended in lysis buffer (25 mM Tris/HCl pH 7.5 at 4° C., 1 mM EDTA, and one tablet of Complete Protease Inhibitor Cocktail Tablets with 2 mM EDTA per 50 mL buffer (Roche cat. #1697498, Roche Molecular Biochemicals, Indianapolis, Ind.)) and homogenized using a tight-fitting Dounce glass homogenizer (10 strokes) on ice. The homogenate was centrifuged at 1000×g, the supernatant was collected and centrifuged at 20,000×g. […] Protein concentration of the membrane suspension was determined by the method described in Bradford (1976) Anal Biochem. 72:248-54. […]

NEP enzyme = target: T2, NEP enzyme (Homo sapiens, UniProt P08473); experiment: In vitro NEP enzyme inhibition assay (fluorogenic peptide substrate); format: biochemical; settings: read-out: pIC50 for the NEP enzyme (converted)
T2 construct: purchased R&D Systems, Minneapolis, Minn; 1182-ZN
T2 sequence (P08473 52-750 limits assumed): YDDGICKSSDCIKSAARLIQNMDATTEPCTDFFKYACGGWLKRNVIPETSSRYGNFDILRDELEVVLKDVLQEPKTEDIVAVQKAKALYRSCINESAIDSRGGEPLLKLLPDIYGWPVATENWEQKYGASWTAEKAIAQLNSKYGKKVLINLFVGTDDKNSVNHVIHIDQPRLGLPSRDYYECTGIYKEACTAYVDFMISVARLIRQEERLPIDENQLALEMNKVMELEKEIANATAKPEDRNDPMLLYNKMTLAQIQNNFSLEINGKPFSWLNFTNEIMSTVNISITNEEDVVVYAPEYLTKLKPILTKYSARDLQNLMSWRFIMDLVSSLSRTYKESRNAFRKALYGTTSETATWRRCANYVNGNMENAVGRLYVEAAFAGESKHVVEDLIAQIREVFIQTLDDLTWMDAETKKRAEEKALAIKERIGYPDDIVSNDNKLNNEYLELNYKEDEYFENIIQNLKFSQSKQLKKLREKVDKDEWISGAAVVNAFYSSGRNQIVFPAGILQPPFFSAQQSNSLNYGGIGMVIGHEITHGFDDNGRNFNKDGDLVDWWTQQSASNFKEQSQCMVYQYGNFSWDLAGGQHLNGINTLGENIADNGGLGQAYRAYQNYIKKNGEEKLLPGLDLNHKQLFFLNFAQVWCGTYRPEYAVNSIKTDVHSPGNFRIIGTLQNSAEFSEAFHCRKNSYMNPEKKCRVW
Method: The inhibitory activities of compounds at human and rat NEP and human ACE were determined using in vitro assays as described below.
Rat NEP was prepared from the kidneys of adult Sprague Dawley rats. Whole kidneys were washed in cold PBS and brought up in ice-cold lysis buffer (1% Triton X-114, 150 mM NaCl, 50 mM Tris pH 7.5; Bordier (1981) J. Biol. Chem. 256:1604-1607) in a ratio of 5 mL of buffer for every gram of kidney. Samples were homogenized using a polytron hand held tissue grinder on ice. Homogenates were centrifuged at 1000×g in a swinging bucket rotor for 5 minutes at 3° C. The pellet was resuspended in 20 mL of ice cold lysis buffer and incubated on ice for 30 minutes. […] Protein concentrations were quantitated using a BCA detection system with BSA as a standard. […]
The assays were performed in 384-well white opaque plates at room temperature using the respective fluorogenic peptides at a concentration of 10 μM in assay buffer (50 mM Tris/HCl at 25° C., 100 mM NaCl, 0.01% Tween-20, 1 μM Zn, 0.025% BSA). […] The rat NEP enzyme preparation was used at a concentration that yielded quantitative proteolysis of 3 μM of Mca-RRL within 20 minutes at room temperature. […]
Plates were read on a fluorometer with excitation and emission wavelengths set to 320 nm and 405 nm, respectively. […]

CCCc1oc(C(=O)N[C@H](Cc2ccccc2)[C@@H](O)C(=O)O)nc1Cc1ccc(-c2ccccc2-c2nnn[nH]2)cc1 [Example 1, (2R,3R)-2-Hydroxy-4-phenyl-3-({5-propyl-4-[2′-(1H-tetrazol-5-yl)-biphenyl-4-ylmethyl]-oxazole-2-carbonyl}amino)butyric Acid]
Ki (human AT1 receptor): < 31.6 nM
IC50 (NEP enzyme): < 1000 nM
